Results: paper PMC8286836, “Identifying SARS-CoV-2 antiviral compounds by screening for small molecule inhibitors of Nsp5 main protease” (Biochemical Journal, 2021)
Values joined by “and” are separate entries in the source; they are usually repeats but may differ in a detail not shown here. Equal entries are not always repeated. “Also recorded” adds a separate entry of the source. Where two headings read alike, the source gives them in different places. Where a SMILES comes first, the peptide text is derived from it. [ ]: non-standard residue; d: D form. The star is where a group is joined. Nle = CCCC[C@H](N)C(=O)O; Cbz = O=C(OCc1ccccc1)*; CH2F = FC*

Assays:
nsp5 [1] = biological target: T1, nsp5 (Severe acute respiratory syndrome coronavirus 2, UniProt P0DTD1); assay: biochemical; type: biochemical; details: for inhibition of nsp5 in FRET-based assay: drug concentrations 0 to 500 µM; for inhibition of nsp5 in presence of reducing agent: DTT or GSH; for inhibition of nsp5 in absence of reducing agent: no reducing agent
nsp5 [2] = biological target: T1, nsp5; assay: Gel based nsp9 cleavage assay; type: biochemical; details: 1 µM nsp5, drug 10-500 µM
thrombin = thrombin (Homo sapiens, UniProt P00734); assay: thrombin FRET protease assay (specificity); type: biochemical; details: for inhibition of thrombin activity (words): same buffer as in the HTS
Excerpt: Calpain Inhibitor I and Z-DEVD-FMK were described recently as nsp5 inhibitors in vitro [21, 25]. To test the specificity of the final five drugs we tested them against a different protease, thrombin. We used the same buffer as in the HTS, which contained a non-ionic detergent, which reduces the likelihood of unspecific inhibition via colloidal aggregation. […] Lastly, we tested whether these compounds could inhibit the other viral coronavirus protease (nsp3 PLpro), which is also a cysteine protease. The substrate and assay conditions used in this experiment as well as example inhibitor compounds of PLpro are described elsewhere (see [28]).
The peptides were analysed by LC–MS on an Agilent 1100 LC-MSD.

SARS-CoV-2 = assay: viral infectivity assay in Vero E6 cells; type: cell-based; details: for EC50: read-out: EC50 viral infection
mice = details: cited from earlier work
rhesus macaques = system: rhesus macaques; design: method as in PMID 29553486; details: trials investigating AIDS disease progression; cited from earlier work
[3] = FRET-based assay, 10 nM nsp5, 20 µM substrate, 2 mM DTT, mean ± SEM, read-out: IC50
[4] = Severe acute respiratory syndrome coronavirus 2, Vero C1008, Vero E6 cells, MOI 0.5 PFU/cell, mean ± SEM

CCNC(=O)[C@H]1O[C@@H](n2cnc3c(N)ncnc32)[C@H](O)[C@@H]1O [5'-N-Ethulcarbomaxidoadenosine]
inhibition of nsp5 in FRET-based assay (nsp5 [1]): Did not inhibit

O=C1O/C(=C/Br)CCC1c1cccc2ccccc12 (stereo not shown) [Bromoenol lactone]
IC50 (nsp5 [1]): 3400 nM
Hill coefficient (nH) (nsp5 [1]; FRET-based assay, mean ± SEM): -2.6 ± 0.15
inhibition of nsp5 in nsp9 gel-based cleavage assay (words) (nsp5 [2]): inhibited nsp5
Inhibition of thrombin: nH (thrombin; HTS buffer, thrombin FRET substrate, mean ± SEM): -2.8 ± 0.8
IC50 (thrombin; HTS buffer, thrombin FRET substrate, mean ± SEM, read-out: Inhibition of thrombin: IC50): 400 ± 600 nM
inhibition of thrombin activity (words) (thrombin): I nhibited thrombin
inhibition of thrombin activity (words) (thrombin; listed as bromoenol lactone): inhibited thrombin activity

Cc1ccccc1N=Nc1ccc(NC(=O)c2ccnn2C)c(C)c1 [CH-223191]
inhibition of nsp5 in FRET-based assay (nsp5 [1]): Did not inhibit

CCCC[C@@H](C=O)NC(=O)[C@H](CC(C)C)NC(=O)[C@H](CC(C)C)NC(C)=O [Calpain Inhibitor I, (2S)-2-(acetylamino)-N-[(1S)-1-({[(1S)-1-formylpentyl]amino}carbonyl)-3-methylbutyl]-4-methylpentanamide] (Ac-Leu-Leu-[Nle]-aldehyde)
IC50 (nsp5 [1]; [3]): 5170 ± 170 nM
inhibition of nsp5 in presence of reducing agent (nsp5 [1]; FRET-based assay): inhibited nsp5 in the absence of reducing agent as well as the presence of either reducing agent
IC50 (nsp5 [1]; FRET-based assay, Reducing agent: DTT, read-out: IC50): 2800 ± 200 nM
IC50 (nsp5 [1]; FRET-based assay, Reducing agent: GSH, read-out: IC50): 2300 ± 200 nM
IC50 (nsp5 [1]; FRET-based assay, Reducing agent: None, read-out: IC50): 2400 ± 100 nM
inhibition of nsp5 in absence of reducing agent (nsp5 [1]; FRET-based assay): inhibited nsp5 in the absence of reducing agent
Hill coefficient (nH) (nsp5 [1]; FRET-based assay, mean ± SEM): -2.0 ± 0.1
inhibition of nsp5 in nsp9 gel-based cleavage assay (words) (nsp5 [2]): inhibited nsp5
EC50 (SARS-CoV-2; [4]): 280 ± 10 nM
toxic effects in mice (mice): without obvious toxic effects

O=c1c2ccccc2[se]n1-c1ccccc1 [Ebselen]
inhibition of nsp5 in presence of reducing agent (nsp5 [1]; FRET-based assay): only a slight reduction in nsp5 activity
inhibition of nsp5 in absence of reducing agent (nsp5 [1]; FRET-based assay): inhibited nsp5 only in the absence of a reducing agent

Br.CCCc1cc(-c2nc(-c3ccc(C)cc3)cs2)ccn1 [Fatostatin HBr]
IC50 (nsp5 [1]; [3]): 64900 nM
Hill coefficient (nH) (nsp5 [1]; FRET-based assay, mean ± SEM): -0.3 ± 0.08
inhibition of nsp5 in FRET-based assay (nsp5 [1]): showed some inhibition of nsp5
inhibition of nsp5 in nsp9 gel-based cleavage assay (words) (nsp5 [2]): Did not inhibit; also recorded: did not show inhibition at any of the drug concentrations

CN1CCN(c2c(F)cc3c(=O)c(C(=O)O)cn4c3c2OCN4C)CC1 [Marbofloxacin]
inhibition of nsp5 in FRET-based assay (nsp5 [1]): Did not inhibit

CC(C)[C@H](NC(=O)c1ccc2ccccc2n1)C(=O)N[C@@H](CC(=O)O)C(=O)COc1c(F)cccc1F [Q-VD-OPh]
inhibition of nsp5 in nsp9 gel-based cleavage assay (words) (nsp5 [2]): did not inhibit nsp5 activity
toxic side effects in rhesus macaques (rhesus macaques): no toxic side effects

CCOc1ccc(Cc2cc([C@@H]3O[C@H](SC)[C@@H](O)[C@H](O)[C@H]3O)ccc2Cl)cc1 [Sotagliflozin (LX4211), Sotagliflozin]
inhibition of nsp5 in FRET-based assay (nsp5 [1]): Did not inhibit

COc1cc2ncc(-c3ccccc3)nc2cc1OC [Tyrphostin AG 1296]
inhibition of nsp5 in FRET-based assay (nsp5 [1]): did not inhibit in either validation step
inhibition of nsp5 in nsp9 gel-based cleavage assay (words) (nsp5 [2]): did not inhibit in either validation step

COC(=O)CC(NC(=O)C(CC(C)C)NC(=O)C(NC(=O)C(C)NC(=O)C(CO)NC(=O)C(C)NC(=O)OCc1ccccc1)C(C)C)C(=O)CF (stereo not shown) [Z-ASAVLD-FMK] (Cbz-ASAVLD(OMe)-CH2F; configuration not given here)
IC50 (nsp5 [1]; [3]): 260 ± 20 nM

COC(=O)CC(NC(=O)C(CC(C)C)NC(=O)C(NC(=O)C(C)NC(=O)OCc1ccccc1)C(C)C)C(=O)CF (stereo not shown) [Z-AVLD-FMK] (Cbz-AVLD(OMe)-CH2F; configuration not given here)
IC50 (nsp5 [1]; FRET-based assay, custom FMK peptides, mean ± SEM, read-out: IC50): < 1 nM and 0.8 nM
EC50 (SARS-CoV-2; Severe acute respiratory syndrome coronavirus 2, Vero C1008): 66000 ± 7280 nM
increase in inhibitor potency (EC50) compared with Z-VAD-FMK (SARS-CoV-2; Vero E6 cells): 2 fold
EC50 (SARS-CoV-2): 66000 ± 7300 nM

COC(=O)CCC(NC(=O)C(CC(=O)OC)NC(=O)OCc1ccccc1)C(=O)NC(C(=O)NC(CC(=O)OC)C(=O)CF)C(C)C (stereo not shown) [Z-DEVD-FMK]
IC50 (nsp5 [1]): 230 ± 30 nM
Hill coefficient (nH) (nsp5 [1]; FRET-based assay, mean ± SEM): -0.7 ± 0.05
inhibition of nsp5 in nsp9 gel-based cleavage assay (words) (nsp5 [2]): inhibited nsp5

CCC(C)C(NC(=O)OCc1ccccc1)C(=O)NC(CCC(=O)OC)C(=O)NC(C(=O)NC(CC(=O)OC)C(=O)CF)C(C)O (stereo not shown) [Z-IETD-FMK] (Cbz-IE(OMe)TD(OMe)-CH2F; configuration not given here)
IC50 (nsp5 [1]; [3]): 230 ± 10 nM
Hill coefficient (nH) (nsp5 [1]; FRET-based assay, mean ± SEM): -1.4 ± 0.08
inhibition of nsp5 in nsp9 gel-based cleavage assay (words) (nsp5 [2]): inhibited nsp5

COC(=O)CC(NC(=O)C(CC(C)C)NC(=O)C(NC(=O)C(C)NC(=O)C(CO)NC(=O)OCc1ccccc1)C(C)C)C(=O)CF (stereo not shown) [Z-SAVLD-FMK] (Cbz-SAVLD(OMe)-CH2F; configuration not given here)
IC50 (nsp5 [1]; [3]): 20 ± 1 nM

COC(=O)CC(NC(=O)C(C)NC(=O)C(NC(=O)OCc1ccccc1)C(C)C)C(=O)CF (stereo not drawn) [Z-VAD-FMK, Z-VAD(OMe)-FMK] (Cbz-Val-Ala-Asp(OMe)-CH2F; configuration not given here)
IC50 (nsp5 [1]): 160 ± 10 nM
Hill coefficient (nH) (nsp5 [1]; FRET-based assay, mean ± SEM): -1.5 ± 0.07
inhibition of nsp5 in nsp9 gel-based cleavage assay (words) (nsp5 [2]): inhibited nsp5
EC50 (SARS-CoV-2; [4]): 138000 ± 19000 nM
concentrations at which inhibition of viral infection was displayed (SARS-CoV-2; Vero E6 cells): greater than 100 µM

PDK1/Akt/Flt Dual Pathway Inhibitor
IC50 (nsp5 [1]; [3]): 26300 nM
Hill coefficient (nH) (nsp5 [1]; FRET-based assay, mean ± SEM): -0.3 ± 0.02
inhibition of nsp5 in FRET-based assay (nsp5 [1]): showed some inhibition of nsp5
inhibition of nsp5 in nsp9 gel-based cleavage assay (words) (nsp5 [2]): Did not inhibit
inhibition of nsp5 in nsp9 gel-based cleavage assay (words) (nsp5 [2]; listed as PDK1/Akt/Flt Dual pathway): did not show inhibition at any of the drug concentrations

Q-DEVD-OPh
inhibition of nsp5 in nsp9 gel-based cleavage assay (words) (nsp5 [2]): only displayed inhibition at the highest concentration of drug tested

Q-IETD-OPh
inhibition of nsp5 in nsp9 gel-based cleavage assay (words) (nsp5 [2]): showed the best nsp5 inhibition
